{"source": "patent US20250339409A1", "about": "“USES OF PAN BET INHIBITORS” (VYNE THERAPEUTICS INC., priority 2021, published 2025)", "test_system": "IL4, IL13, IL31, CCL17, CCL26, CCL2 gene expression in Th2 stimulated human skin", "experiment": "Th2 stimulated human skin explants, RT-qPCR of biomarkers", "assay_type": "cell-based", "details": "for inhibition at 0.01 µM / inhibition at 0.04 µM / inhibition at 0.16 µM / inhibition at 0.63 µM / inhibition at 2.5 µM / inhibition at 10 µM: Homo sapiens, calculated to Th2 stimulated control; for inhibition at 2.5 µM: 2.50 μM", "description": "Human skin biopsy tissue was stimulated to induce a Th17 immuno-phenotype using a method derived from Feghali-Bostwick et al. Induction of a Th17 phenotype in human skin—a mimic of dermal inflammatory diseases, Methods and Protocols, 2, 45 (2019). The pharmacodynamic assay described therein involves a similar paradigm to elicit a Th2 response and is used to evaluate the therapeutic potential of the active compounds (e.g., BETi1; and\nFreshly excised healthy human skin tissue from abdominoplasties is defatted, cleaned and sectioned into 7 mm biopsies. The biopsies are placed in Transwell® inserts with the epidermis apical and exposed to air and the dermis submerged in media in the basal chamber. The biopsies are pre-treated overnight at 37° C., 5% CO2 with different compounds and controls added to the media in the basal chamber.\nThe next day, contents of the basal chamber is replaced with fresh media containing the test compound (listed below) and a stimulation cocktail for either Th2 inflammation (proprietary of service provider cocktail) or Th17 inflammation (mix of antibodies against CD3, CD28, IL-4, IFNγ and recombinant IL-1β, IL-6, IL-21, TGF-β). The biopsies are incubated at 37° C., 5% CO2 for a further 24 hrs.\nA list of all the treatments is provided below: • 1. Untreated control (for both stimulations) • 2. Th2 stimulated control • 3. Th17 stimulated control • 4. Th2+BETia at 0.01, 0.04, 0.16, 0.63, 2.50, and 10 μM • 5. Th2+BETi1 at 0.01, 0.04, 0.16, 0.63, 2.50, and 10 μM • 6. Th2+Ruxolitinib at 0.01, 0.04, 0.16, 0.63, 2.50, and 10 μM • 7. Th2+betamethasone valerate 210 μM (equivalent to 0.01%) • 8. Th17+BETia at 10 μM • 9. Th17+BETi1 at 10 μM • 10. Th17+Ruxolitinib at 10 μM • 11. Th17+betamethasone valerate 210 μM (equivalent to 0.01%)\nAfter harvesting, the biopsies are cut in half, and one half is homogenized and used for RNA extraction by standard methods and inflammatory pathways is assessed by RT-qPCR. The ability of BETi1 or BETia to inhibit the activity of up to six biomarkers per stimulation is reported as percent activity calculated to stimulated control and fold change in gene expression calculated to untreated control with respect to Th2 (IL4, IL13, IL31, CCL17, CCL26, CCL2) and Th17 (CXCL10, IL17α, IL22, IL36γ, CCL20, SerpinB4). Statistical analysis is performed on data sets from all 3 donors combined and compares the percent inhibition of each biomarker by each treatment calculated to its respective vehicle.\nqPCR values were calculated using the relative quantification approach outlined by Livak, et al (2001) (Section 9, Reference 2). The Ct values (threshold cycle) defined as the fractional cycle number at which the amount of amplified target reaches a fixed threshold, were normalised to the Ct value of an internal biomarker or ‘housekeeping gene’ (GAPDH). The higher limit of detection was set at a Ct value of 40, and any target having not reached Ct by 40 cycles was set to this value. The delta Ct values (dt(Ct)) refers to the Ct of the gene of interest minus the Ct of the internal biomarker. The ddt(Ct) is the dt(Ct) value of the gene minus the average dt(Ct) value of the untreated samples. The ddt(Ct) is converted to power by the equation; =power(2,dt(Ct)). Fold change was calculated as ratio of the power of the gene of interest divided by the average power of the untreated samples. This normalizes the untreated samplers to a value of 1. For the comparison of multiple skin donors, the stimulated samples were normalized to 100% maximum activity (such to normalize variability between different skin donors). Percent activity was calculated as the percent increase or decrease in stimulation compared to the stimulated samples set at 100% maximum activity. Percent change was calculated as: Inhibition=(100−(avg % activity/stimulated)*100). Statistical analysis was performed using One-way ANOVA with Dunnett's Multiple Comparisons (non parametric). […]", "key": {"[1]": {"details": "Th2 stimulated human skin explants, 10 μM, compared to untreated skin"}}, "note": "Where two headings read alike, the source gives them in different places.", "data": [{"compound": "Cn1cc(-c2cccc(O)c2Oc2ccccc2)c2cc[nH]c2c1=O", "note": "[BETi1]", "values": [{"measurement": "inhibition at 0.01 µM", "setting": "read-out: % Inhibition CCL17", "value": 22.4, "unit": "%"}, {"measurement": "inhibition at 0.01 µM", "setting": "read-out: % Inhibition CCL26", "value": 31.3, "unit": "%"}, {"measurement": "inhibition at 0.01 µM", "setting": "read-out: % Inhibition IL31", "value": "< 0", "unit": "%"}, {"measurement": "inhibition at 0.01 µM", "setting": "read-out: % inhibition CCL2", "value": "< 0", "unit": "%"}, {"measurement": "inhibition at 0.01 µM", "setting": "read-out: % inhibition IL4", "value": 20.4, "unit": "%"}, {"measurement": "inhibition at 0.01 µM", "setting": "read-out: % inhibition IL13", "value": 22.4, "unit": "%"}, {"measurement": "inhibition at 0.04 µM", "setting": "read-out: % Inhibition CCL17", "value": "< 0", "unit": "%"}, {"measurement": "inhibition at 0.04 µM", "setting": "read-out: % Inhibition CCL26", "value": 10.9, "unit": "%"}, {"measurement": "inhibition at 0.04 µM", "setting": "read-out: % Inhibition IL31", "value": "< 0", "unit": "%"}, {"measurement": "inhibition at 0.04 µM", "setting": "read-out: % inhibition CCL2", "value": "< 0", "unit": "%"}, {"measurement": "inhibition at 0.04 µM", "setting": "read-out: % inhibition IL4", "value": 51.8, "unit": "%"}, {"measurement": "inhibition at 0.04 µM", "setting": "read-out: % inhibition IL13", "value": 3, "unit": "%"}, {"measurement": "inhibition at 0.16 µM", "setting": "read-out: % Inhibition CCL26", "value": 15.2, "unit": "%"}, {"measurement": "inhibition at 0.16 µM", "setting": "read-out: % Inhibition IL31", "value": "~74", "unit": "%"}, {"measurement": "inhibition at 0.16 µM", "setting": "read-out: % inhibition CCL2", "value": 40, "unit": "%"}, {"measurement": "inhibition at 0.16 µM", "setting": "read-out: % inhibition IL4", "value": 83.4, "unit": "%"}, {"measurement": "inhibition at 0.16 µM", "setting": "read-out: % inhibition IL13", "value": 76.3, "unit": "%"}, {"measurement": "inhibition at 0.63 µM", "setting": "read-out: % Inhibition CCL17", "value": 48, "unit": "%"}, {"measurement": "inhibition at 0.63 µM", "setting": "read-out: % Inhibition CCL26", "value": "< 0", "unit": "%"}, {"measurement": "inhibition at 0.63 µM", "setting": "read-out: % inhibition CCL2", "value": 34.9, "unit": "%"}, {"measurement": "inhibition at 0.63 µM", "setting": "read-out: % inhibition IL4", "value": "~80", "unit": "%"}, {"measurement": "inhibition at 0.63 µM", "setting": "read-out: % inhibition IL13", "value": "~84", "unit": "%"}, {"measurement": "inhibition at 2.5 µM", "setting": "read-out: % Inhibition CCL17", "value": 62.3, "unit": "%"}, {"measurement": "inhibition at 2.5 µM", "setting": "read-out: % Inhibition CCL26", "value": "< 0", "unit": "%"}, {"measurement": "inhibition at 2.5 µM", "setting": "read-out: % inhibition CCL2", "value": 76.5, "unit": "%"}, {"measurement": "inhibition at 2.5 µM", "setting": "read-out: % inhibition IL4", "value": 82, "unit": "%"}, {"measurement": "inhibition at 2.5 µM", "setting": "read-out: % inhibition IL13", "value": 90.2, "unit": "%"}, {"measurement": "inhibition at 10 µM", "setting": "10 μM, read-out: % Inhibition CCL17", "value": "~62", "unit": "%"}, {"measurement": "inhibition at 10 µM", "setting": "10 μM, read-out: % Inhibition CCL26", "value": "< 0", "unit": "%"}, {"measurement": "inhibition at 10 µM", "setting": "10 μM, read-out: % Inhibition IL31", "value": 95.4, "unit": "%"}, {"measurement": "inhibition at 10 µM", "setting": "10 μM, read-out: % inhibition IL4", "value": 74.9, "unit": "%"}, {"measurement": "inhibition at 10 µM", "setting": "10 μM, read-out: % inhibition IL13", "value": 93.3, "unit": "%"}, {"measurement": "highest percent inhibition of IL4, IL13, IL31, and CCL2 gene expression", "setting": "Th2-mediated stimulation, compared to stimulated and untreated", "value": "76-85%"}, {"measurement": "inhibition of interleukin IL-4 expression", "setting": "[1]", "value": 75, "unit": "%"}, {"measurement": "inhibition of interleukin IL-13 expression", "setting": "[1]", "value": 93, "unit": "%"}, {"measurement": "inhibition of interleukin IL-31 expression", "setting": "[1]", "value": 95, "unit": "%"}, {"measurement": "reduction in CXCL10, IL-17a, IL-36γ, IL-4, IL-13 or IL-31 levels", "setting": "human skin induced to exhibit Th2 or Th17 phenotype", "value": "> 75", "unit": "%"}]}]}
